For 19 molecules, IC50 results are on record in US8642629B2, “Naphthylacetic acids” (Hoffmann-La Roche Inc., priority 2008, dated 2014).

One assay deals with T1, human CRTH2 (Homo sapiens, UniProt Q9Y5Y4).
T1 construct: expressed in transfected cells; host or cells: CHO-K1
T1 sequence (Q9Y5Y4 1-395): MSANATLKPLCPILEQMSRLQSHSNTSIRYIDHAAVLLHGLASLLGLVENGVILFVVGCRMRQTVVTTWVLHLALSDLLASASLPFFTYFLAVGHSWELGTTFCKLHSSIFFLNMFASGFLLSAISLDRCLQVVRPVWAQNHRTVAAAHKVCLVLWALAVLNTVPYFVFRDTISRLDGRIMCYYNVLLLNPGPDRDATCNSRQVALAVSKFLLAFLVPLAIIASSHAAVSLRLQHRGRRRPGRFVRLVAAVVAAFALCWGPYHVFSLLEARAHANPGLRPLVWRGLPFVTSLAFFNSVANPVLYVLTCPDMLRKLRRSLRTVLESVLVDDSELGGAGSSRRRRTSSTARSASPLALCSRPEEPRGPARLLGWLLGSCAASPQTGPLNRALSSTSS
The experiment in a line: Human CRTH2 Receptor Binding Assay (whole cell, [3H]ramatroban competition). Conditions: CHO-K1 cells expressing human CRTH2 and G-alpha16; 20 nM [3H]ramatroban; 1 hour, room temperature. An outline of the steps:
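Whole CHO-K1 cells stably expressing human CRTH2 and G-alpha16 were incubated with 20 nM [3H]ramatroban and compound for 1 h at room temperature in PBS with 10 mM MgCl2 and 0.06% BSA, then filtered and counted. Non-specific binding was defined with 10 μM 15(R)-15-methyl PGD2, and IC50 was fitted by 4-parameter logistic from 7 concentrations.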
Take `CCS(=O)(=O)c1ccc(Oc2cc(CC(=O)O)cc3ccc(F)cc23)cc1` [Example 1-1, [4-(4-ethanesulfonyl-phenoxy)-6-fluoro-naphthalen-2-yl]-acetic acid]: the IC50 was 2.3 nM. In turn, `CCS(=O)(=O)c1ccc(Oc2c(C)c(CCC(=O)O)cc3ccc(F)cc23)cc1` [Example 7-1, 3-[4-(4-ethanesulfonyl-phenoxy)-6-fluoro-3-methyl-naphthalen-2-yl]-propionic acid] returned an IC50 of 130 nM.

As to `CCS(=O)(=O)c1ccc(Oc2cc(CC(=O)O)c(C)c3ccc(F)cc23)nc1` [Example 6-1, [4-(5-ethanesulfonyl-pyridin-2-yloxy)-6-fluoro-1-methyl-naphthalen-2-yl]-acetic acid], the IC50 was found to be 32.1 nM. The molecule `CCc1cc(S(=O)(=O)CC)cnc1Oc1c(C)c(CC(=O)O)cc2ccc(F)cc12` [Example 20-1, [4-(5-Ethanesulfonyl-3-ethyl-pyridin-2-yloxy)-6-fluoro-3-methyl-naphthalen-2-yl]-acetic acid] had an IC50 of 2.9 nM. As for `CCS(=O)(=O)c1ccc(Oc2c(C)c(CC(=O)O)cc3ccc(F)cc23)cc1Cl` [Example 2-19, [4-(3-chloro-4-ethanesulfonyl-phenoxy)-6-fluoro-3-methyl-naphthalen-2-yl]-acetic acid], the IC50 stood at 12.4 nM. Turning to `CCS(=O)(=O)c1cnc(Oc2c(C)c(CC(=O)O)cc3ccc(F)cc23)c(C2CC2)c1` [Example 21-1, [4-(3-Cyclopropyl-5-ethanesulfonyl-pyridin-2-yloxy)-6-fluoro-3-methyl-naphthalen-2-yl]-acetic acid], the IC50 came out at 2.8 nM.

In turn, `CCS(=O)(=O)c1ccc(Oc2cc(CC(=O)O)cc3ccc(Br)cc23)cc1` [Example 15-1, [6-Bromo-4-(4-ethanesulfonyl-phenoxy)-naphthalen-2-yl]-acetic acid] had an IC50 of 5.4 nM. The same measure, in the same setting: to `Cc1c(CC(=O)O)cc2ccc(F)cc2c1Oc1ccc(S(=O)(=O)N2CCC(F)(F)CC2)cc1` [Example 2-42, {4-[4-(4,4-difluoro-piperidine-1-sulfonyl)-phenoxy]-6-fluoro-3-methyl-naphthalen-2-yl}-acetic acid] belongs 2.9 nM; to `CS(=O)(=O)c1ccc(S(=O)(=O)c2cc(CC(=O)O)cc3ccc(F)cc23)cc1` [Example 11-1, [6-fluoro-4-(4-methanesulfonyl-benzenesulfonyl)-naphthalen-2-yl]-acetic acid], 7.7 nM; to `CCS(=O)(=O)c1ccc(Oc2cc(CC(=O)O)cc3ccc(C(F)(F)F)cc23)cc1` [Example 1-17, [4-(4-Ethanesulfonyl-phenoxy)-6-trifluoromethyl-naphthalen-2-yl]-acetic acid], 10.5 nM.

Molecule `Cc1cc(S(C)(=O)=O)cnc1Oc1c(C)c(CC(=O)O)cc2ccc(F)cc12` [Example 2-34, [6-fluoro-4-(5-methanesulfonyl-3-methyl-pyridin-2-yloxy)-3-methyl-naphthalen-2-yl]-acetic acid] came in with an IC50 of 3.1 nM. Still for that read-out and setting: to `CCS(=O)(=O)c1ccc(Oc2c(C3CC3)c(CC(=O)O)cc3ccc(F)cc23)nc1` [Example 18-1, [3-Cyclopropyl-4-(5-ethanesulfonyl-pyridin-2-yloxy)-6-fluoro-naphthalen-2-yl]-acetic acid] belongs 6.7 nM. Regarding `CS(=O)(=O)c1ccc(Oc2cc(CC(=O)O)cc3ccc(Cl)cc23)cc1` [Example 1-3, [6-chloro-4-(4-methanesulfonyl-phenoxy)-naphthalen-2-yl]-acetic acid], the IC50 turned out to be 8.5 nM. As for `CCS(=O)(=O)c1ccc(Oc2c(C)c(CC(=O)O)cc3ccc(F)cc23)c(C#N)c1` [Example 2-18, [4-(2-cyano-4-ethanesulfonyl-phenoxy)-6-fluoro-3-methyl-naphthalen-2-yl]-acetic acid], the IC50 is 1.7 nM.

Regarding `CCS(=O)(=O)c1ccc(Oc2c(C)c(CC(=O)O)cc3ccc(F)cc23)c(C)c1` [Example 2-10, [4-(4-ethanesulfonyl-2-methyl-phenoxy)-6-fluoro-3-methyl-naphthalen-2-yl]-acetic acid], the IC50 amounted to 7.3 nM. The molecule `CS(=O)(=O)c1ccc(Oc2cc(CC(=O)O)cc3ccc(F)cc23)nc1` [Example 1-9, [6-fluoro-4-(5-methanesulfonyl-pyridin-2-yloxy)-naphthalen-2-yl]-acetic acid] yielded an IC50 of 3.7 nM.

For the molecule `CCS(=O)(=O)c1ccc(Oc2cc(CC(=O)O)cc3ccc(OC)cc23)cc1` [Example 1-15, [4-(4-Ethanesulfonyl-phenoxy)-6-methoxy-naphthalen-2-yl]-acetic acid], the IC50 worked out at 5.3 nM. Molecule `CCS(=O)(=O)c1ccc(Oc2cc(CC(=O)O)cc3ccc(C#N)cc23)nc1` [Example 14-1, [6-Cyano-4-(5-ethanesulfonyl-pyridin-2-yloxy)-naphthalen-2-yl]-acetic acid] returned an IC50 of 3.3 nM. Still for that read-out and setting: in the case of `CCS(=O)(=O)c1cc(Cl)c(Oc2c(C)c(CC(=O)O)cc3ccc(F)cc23)cc1F` [Example 2-25, [4-(2-chloro-4-ethanesulfonyl-5-fluoro-phenoxy)-6-fluoro-3-methyl-naphthalen-2-yl]-acetic acid] it was 2.4 nM.

The next assay has as its target T1, human CRTH2. The experiment in a line: Calcium Flux Assay Using Fluorometric Imaging Plate Reader (FLIPR). Type of assay: cell-based. Conditions: CHO-K1 cells transfected with G-alpha 16 and human CRTH2; inhibition of ligand (DK-PGD2) response. The method, then:
CHO-K1 cells previously transfected with G-alpha 16 were subsequently transfected with the human CRTH2 receptor and the neomycin resistance gene. Following selection in 800 μg/mL G418 (geneticin), individual clones were assayed for their receptor expression based on staining with an anti human CRTH2 IgG, followed by assaying for their response to 13,14-dihydro-15-keto Prostaglandin D2 (DK-PDG2) (ligand) in the Ca^2+ Flux assay. Positive clones were then cloned by limiting dilution cloning. […] Cells were harvested with trypsin-EDTA (trypsin-ethylenediaminetetraacetic acid) and counted using ViaCount® reagent (from Guava Technologies, Inc. which contains two DNA-binding dyes that enable the reagent user to distinguish between viable and non-viable cells). […]
After incubation, both the cell and “assay plate” plates were brought to the fluorometric imaging plate reader (FLIPR®) and 20 μL of the diluted compounds were transferred to the cell plates by the FLIPR®. […] During the assay, fluorescence readings were taken simultaneously from all 384 wells of the cell plate every 1.5 seconds. Five readings were taken to establish a stable baseline, then 20 μL of sample was rapidly (30 μL/sec) and simultaneously added to each well of the cell plate. The fluorescence was continuously monitored before, during and after sample addition for a total elapsed time of 100 seconds. […]
Regarding `CCS(=O)(=O)c1ccc(Oc2cc(CC(=O)O)cc3ccc(F)cc23)cc1` [Example 1-1, [4-(4-ethanesulfonyl-phenoxy)-6-fluoro-naphthalen-2-yl]-acetic acid], the IC50 was found to be 5000 nM. For the molecule `CCS(=O)(=O)c1ccc(Oc2c(C)c(CCC(=O)O)cc3ccc(F)cc23)cc1` [Example 7-1, 3-[4-(4-ethanesulfonyl-phenoxy)-6-fluoro-3-methyl-naphthalen-2-yl]-propionic acid], the IC50 amounted to 4200 nM.

Broadly, the IC50 is the midpoint of a concentration-inhibition curve.
